In ChEMBL document CHEMBL3431459, “Roche carnitine palmitoyltransferase modulator screening data (supplementary data associated with the publication CHEMBL2216752)”:
Converted amounts (≈) assume the structure as drawn.

How the values were obtained:
[1] = SUPPLEMENTARY: PAMPA permeability assay; format: physicochemical; conditions: read-out: Permeability
[2] = molecular target: T1, Carnitine O-palmitoyltransferase 1, liver isoform (Rattus norvegicus, UniProt P32198); assay: (§1) SUPPLEMENTARY: Inhibition of Carnitine palmitoyltransferase 1, liver isoform
T1 sequence (P32198 whole entry): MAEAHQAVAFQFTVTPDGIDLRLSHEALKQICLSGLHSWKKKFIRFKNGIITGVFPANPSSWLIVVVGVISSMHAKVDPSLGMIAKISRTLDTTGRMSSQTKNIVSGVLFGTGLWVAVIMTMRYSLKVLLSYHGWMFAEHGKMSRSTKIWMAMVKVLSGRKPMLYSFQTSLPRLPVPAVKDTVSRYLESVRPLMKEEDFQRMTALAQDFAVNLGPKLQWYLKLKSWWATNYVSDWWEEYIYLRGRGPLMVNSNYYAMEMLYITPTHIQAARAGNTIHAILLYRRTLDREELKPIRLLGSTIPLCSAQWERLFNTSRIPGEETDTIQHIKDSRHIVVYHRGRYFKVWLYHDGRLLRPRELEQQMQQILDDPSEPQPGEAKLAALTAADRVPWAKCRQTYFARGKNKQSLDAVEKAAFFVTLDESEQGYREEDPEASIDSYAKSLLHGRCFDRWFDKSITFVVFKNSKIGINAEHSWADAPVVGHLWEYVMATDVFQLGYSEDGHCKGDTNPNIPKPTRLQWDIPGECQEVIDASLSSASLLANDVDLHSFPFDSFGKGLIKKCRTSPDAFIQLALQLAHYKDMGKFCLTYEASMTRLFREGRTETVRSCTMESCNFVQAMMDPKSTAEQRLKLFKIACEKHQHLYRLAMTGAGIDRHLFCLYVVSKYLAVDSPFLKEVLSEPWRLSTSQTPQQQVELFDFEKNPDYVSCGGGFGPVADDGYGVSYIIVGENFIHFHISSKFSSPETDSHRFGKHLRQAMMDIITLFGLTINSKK

[3] = molecular target: T2, Carnitine O-palmitoyltransferase 1, liver isoform (Homo sapiens, UniProt P50416); assay: as §1
T2 sequence (P50416 whole entry): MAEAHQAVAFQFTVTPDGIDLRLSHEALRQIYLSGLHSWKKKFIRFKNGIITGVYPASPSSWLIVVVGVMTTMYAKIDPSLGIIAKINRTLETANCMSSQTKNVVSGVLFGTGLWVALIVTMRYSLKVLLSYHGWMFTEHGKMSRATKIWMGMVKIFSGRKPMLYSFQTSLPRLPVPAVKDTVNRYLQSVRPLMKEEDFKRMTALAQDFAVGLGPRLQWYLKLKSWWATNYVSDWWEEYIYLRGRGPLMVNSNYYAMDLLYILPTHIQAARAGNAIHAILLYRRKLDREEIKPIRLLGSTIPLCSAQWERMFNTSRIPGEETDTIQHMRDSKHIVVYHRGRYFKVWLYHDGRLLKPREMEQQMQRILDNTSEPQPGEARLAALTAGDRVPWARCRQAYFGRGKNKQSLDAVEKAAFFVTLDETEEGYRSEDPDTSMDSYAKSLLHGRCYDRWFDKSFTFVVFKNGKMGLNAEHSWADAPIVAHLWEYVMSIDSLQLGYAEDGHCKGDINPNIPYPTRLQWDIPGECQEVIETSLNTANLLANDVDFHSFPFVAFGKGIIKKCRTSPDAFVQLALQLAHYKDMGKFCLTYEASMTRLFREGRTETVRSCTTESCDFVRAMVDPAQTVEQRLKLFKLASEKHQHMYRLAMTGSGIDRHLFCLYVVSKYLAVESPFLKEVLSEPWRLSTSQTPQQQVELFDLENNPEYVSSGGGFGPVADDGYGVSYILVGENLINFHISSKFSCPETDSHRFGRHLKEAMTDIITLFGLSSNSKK

[4] = molecular target: T3, Carnitine O-palmitoyltransferase 2, mitochondrial (Homo sapiens, UniProt P23786); assay: (§2) SUPPLEMENTARY: Inhibition of Carnitine palmitoyltransferase 2
T3 sequence (P23786 whole entry): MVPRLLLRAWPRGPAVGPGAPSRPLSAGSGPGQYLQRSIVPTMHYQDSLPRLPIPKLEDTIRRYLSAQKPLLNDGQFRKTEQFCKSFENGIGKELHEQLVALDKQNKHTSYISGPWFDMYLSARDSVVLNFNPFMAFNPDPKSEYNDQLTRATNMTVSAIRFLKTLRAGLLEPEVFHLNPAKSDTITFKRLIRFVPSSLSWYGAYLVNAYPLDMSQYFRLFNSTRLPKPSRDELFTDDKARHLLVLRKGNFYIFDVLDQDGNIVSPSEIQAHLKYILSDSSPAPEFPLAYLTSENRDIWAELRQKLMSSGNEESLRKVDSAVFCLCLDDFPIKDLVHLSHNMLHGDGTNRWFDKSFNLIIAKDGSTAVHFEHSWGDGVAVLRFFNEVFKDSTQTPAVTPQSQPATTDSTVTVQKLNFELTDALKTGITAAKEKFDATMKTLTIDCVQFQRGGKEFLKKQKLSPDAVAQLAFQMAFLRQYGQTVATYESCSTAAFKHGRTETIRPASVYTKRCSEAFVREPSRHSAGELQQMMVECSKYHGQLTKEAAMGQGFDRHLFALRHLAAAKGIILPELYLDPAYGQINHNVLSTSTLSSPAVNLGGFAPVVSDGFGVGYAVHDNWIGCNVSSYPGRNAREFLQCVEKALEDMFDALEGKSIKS

[5] = molecular target: T4, Carnitine O-palmitoyltransferase 2, mitochondrial (Rattus norvegicus, UniProt P18886); assay: as §2
T4 sequence (P18886 whole entry): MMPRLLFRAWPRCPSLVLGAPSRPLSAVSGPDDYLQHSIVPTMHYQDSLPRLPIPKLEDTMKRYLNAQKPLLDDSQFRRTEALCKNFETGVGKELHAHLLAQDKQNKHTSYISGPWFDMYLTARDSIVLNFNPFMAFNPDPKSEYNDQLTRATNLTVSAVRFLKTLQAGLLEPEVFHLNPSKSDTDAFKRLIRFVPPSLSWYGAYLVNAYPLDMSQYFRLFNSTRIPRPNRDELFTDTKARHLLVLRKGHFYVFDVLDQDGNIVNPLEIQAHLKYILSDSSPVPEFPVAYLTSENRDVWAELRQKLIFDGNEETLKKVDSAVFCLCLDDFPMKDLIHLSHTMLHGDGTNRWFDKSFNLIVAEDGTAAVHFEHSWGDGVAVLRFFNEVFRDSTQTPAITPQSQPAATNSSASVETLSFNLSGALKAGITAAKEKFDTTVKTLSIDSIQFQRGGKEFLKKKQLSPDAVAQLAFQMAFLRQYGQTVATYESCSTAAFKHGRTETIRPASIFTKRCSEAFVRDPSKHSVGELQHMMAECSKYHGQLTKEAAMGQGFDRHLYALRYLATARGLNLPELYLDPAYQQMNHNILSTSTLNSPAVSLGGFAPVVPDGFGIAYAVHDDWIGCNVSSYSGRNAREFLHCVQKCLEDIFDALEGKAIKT

[6] = SUPPLEMENTARY: Lipophilicity (log D) Determination by high-throughput shake-flask; format: physicochemical; conditions: octanol/water
[7] = SUPPLEMENTARY: Lyophilisation Solubility Assay (LYSA); format: physicochemical; conditions: read-out: Kinetic_solubility
[8] = molecular target: T5, Carnitine O-palmitoyltransferase 1, muscle isoform (Homo sapiens, UniProt Q92523); assay: SUPPLEMENTARY: Inhibition of Carnitine palmitoyltransferase 1, muscle isoform; set-up: species or system Muscle tissue
T5 sequence (Q92523 whole entry): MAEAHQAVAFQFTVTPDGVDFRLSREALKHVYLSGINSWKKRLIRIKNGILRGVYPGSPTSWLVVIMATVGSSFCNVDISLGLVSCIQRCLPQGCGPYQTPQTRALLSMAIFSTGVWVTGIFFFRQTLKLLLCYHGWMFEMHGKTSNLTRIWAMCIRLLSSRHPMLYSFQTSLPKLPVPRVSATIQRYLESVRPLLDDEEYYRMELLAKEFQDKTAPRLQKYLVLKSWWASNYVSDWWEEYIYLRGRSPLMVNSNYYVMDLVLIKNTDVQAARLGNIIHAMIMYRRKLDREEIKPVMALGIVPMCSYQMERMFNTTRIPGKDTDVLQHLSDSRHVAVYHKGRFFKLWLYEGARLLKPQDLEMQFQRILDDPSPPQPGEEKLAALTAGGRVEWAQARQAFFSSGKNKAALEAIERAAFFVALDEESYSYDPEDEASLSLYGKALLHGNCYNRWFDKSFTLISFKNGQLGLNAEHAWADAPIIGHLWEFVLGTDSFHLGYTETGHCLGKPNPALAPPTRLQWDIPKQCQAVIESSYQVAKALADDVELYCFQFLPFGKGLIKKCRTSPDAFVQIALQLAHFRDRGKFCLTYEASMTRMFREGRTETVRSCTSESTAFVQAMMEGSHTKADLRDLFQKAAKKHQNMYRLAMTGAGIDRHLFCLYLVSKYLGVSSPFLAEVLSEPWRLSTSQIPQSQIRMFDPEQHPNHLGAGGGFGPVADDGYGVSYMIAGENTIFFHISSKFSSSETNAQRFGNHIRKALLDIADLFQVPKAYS

| SMILES | Papp [1] | IC50 [2] | IC50 [3] | IC50 [4] | IC50 [5] | logD [6] | solubility kinetic [7] | IC50 [8] |
| --- | --- | --- | --- | --- | --- | --- | --- | --- |
| NC(=O)c1cncc(-c2noc([C@H]3COCCN3C(=O)COc3ccccc3)n2)c1 | 2.86 ×10⁻⁶ cm/s | 1.25 µM | 0.168 µM | > 100 µM | > 100 µM | 1.05 | 191 µg/mL (≈ 467 µM) | > 100 µM |
| COc1ccc(Cl)cc1S(=O)(=O)N1CC(C(=O)O)Oc2ccc(C(=O)Nc3ccccc3)cc21 (stereo not drawn) | 0.03 ×10⁻⁶ cm/s | 0.0259 µM | 0.0345 µM | > 100 µM | > 100 µM | -0.45 | 446 µg/mL (≈ 887 µM) | 27.3 µM |
| O=C(COc1ccccc1)N1CCCC[C@@H]1c1nc(-c2ccc(-c3cnc[nH]3)cc2)no1 | 0.261 ×10⁻⁶ cm/s | 0.239 µM | 0.164 µM | 41.8 µM | 39.8 µM | 1.98 | 8 µg/mL (≈ 18.6 µM) | > 100 µM |
| COc1ccc(Cl)cc1S(=O)(=O)N1CC[S+]([O-])c2ccc(C(=O)Nc3ccc(C(=O)O)cc3)cc21 (stereo not drawn) | 0.12 ×10⁻⁶ cm/s | 0.0368 µM | 0.0941 µM | 2.53 µM | 55.6 µM | -0.34 | 34 µg/mL (≈ 63.6 µM) | 17.2 µM |
| COc1ccc(C)cc1S(=O)(=O)N1CCc2ccc(C(=O)Nc3ccc(CC(=O)O)cc3)cc21 | 2.21 ×10⁻⁶ cm/s | 0.174 µM | 0.237 µM | > 100 µM | > 100 µM | 0.11 | 93 µg/mL (≈ 194 µM) | 2.21 µM |
| COc1ccc(Cl)cc1S(=O)(=O)N1CC(C)c2ccc(C(=O)Nc3ccc(C(=O)O)c(F)c3)cc21 (stereo not drawn) | 1.99 ×10⁻⁶ cm/s | 0.0467 µM | 0.0922 µM | 0.584 µM | 3.88 µM | 0.6 | 493 µg/mL (≈ 950 µM) | 1.18 µM |
| COc1ccc(Cl)cc1S(=O)(=O)Nc1cc(C(=O)Nc2ccc(C(=O)O)cc2)cn(C)c1=O | 0.27 ×10⁻⁶ cm/s | 0.0804 µM | 0.127 µM | 3.23 µM | 42.4 µM | -0.34 | 13 µg/mL (≈ 26.4 µM) | > 100 µM |
| O=C([C@H]1CCCCN1C(=O)COc1ccccc1)N1CCc2cccc(Cl)c2C1 | 1.91 ×10⁻⁶ cm/s | 0.11 µM | 0.182 µM | 2.81 µM | 3.52 µM | 3.2 | < 1 µg/mL | 79 µM |
| CCn1c(C)nc(Cl)c1-c1noc([C@H]2CCCCN2C(=O)COc2ccccc2)n1 | 3.98 ×10⁻⁶ cm/s | 0.164 µM | 0.0738 µM | 37.3 µM | > 100 µM | 3.17 | 24 µg/mL (≈ 55.8 µM) | > 100 µM |
| CC(=O)Nc1ccc(-c2noc([C@H]3CCCCN3C(=O)C#Cc3ccccc3)n2)cc1C(F)(F)F | 1.5 ×10⁻⁶ cm/s | 7.98 µM | 0.26 µM | > 100 µM | > 100 µM | > 3 | 1 µg/mL (≈ 2.07 µM) | > 100 µM |
| COc1ccc(Cl)cc1S(=O)(=O)Nc1cccc(C#Cc2ccc(C(=O)O)cc2)c1 | 0.75 ×10⁻⁶ cm/s | 0.0852 µM | 0.226 µM | > 100 µM | > 100 µM | 2.38 | 8 µg/mL (≈ 18.1 µM) | 45.1 µM |
